Measured values published in ChEMBL document CHEMBL3991947, “D-serine transporter inhibitors as pharmaceutical compositions for the treatment of central nervous system disorders” (2014).

These molecules were tested against T1, Amino acid transporter (Rattus norvegicus) (UniProt Q9Z1J7) (assay: Inhibition of ASCT2 mediated [3H]-D-serine uptake in rat hippocampal astrocytes at 1 mM after 5 mins by beta counting analysis).
T1 sequence (whole entry): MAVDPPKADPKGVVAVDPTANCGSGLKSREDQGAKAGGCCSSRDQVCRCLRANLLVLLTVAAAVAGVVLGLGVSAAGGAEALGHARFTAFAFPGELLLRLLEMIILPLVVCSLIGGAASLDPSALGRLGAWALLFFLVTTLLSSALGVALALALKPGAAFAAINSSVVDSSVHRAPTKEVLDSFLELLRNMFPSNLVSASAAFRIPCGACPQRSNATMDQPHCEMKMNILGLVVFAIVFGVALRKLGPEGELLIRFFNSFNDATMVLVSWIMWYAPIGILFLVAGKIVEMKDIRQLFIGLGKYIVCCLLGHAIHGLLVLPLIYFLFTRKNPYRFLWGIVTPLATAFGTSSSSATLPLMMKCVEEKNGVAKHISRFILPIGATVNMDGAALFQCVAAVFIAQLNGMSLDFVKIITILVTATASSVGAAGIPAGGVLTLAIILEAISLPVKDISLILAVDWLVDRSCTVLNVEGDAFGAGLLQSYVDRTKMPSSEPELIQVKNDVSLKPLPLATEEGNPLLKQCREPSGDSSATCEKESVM
Assay type: cell-based
NC(C(=O)O)c1ccc(C(=O)O)c(O)c1 (stereo not given) gave an inhibition greater than 25%. COC(=O)CC[C@H](N)C(=O)O gave an inhibition greater than 25%. Molecule NC(CC(=O)Nc1ccccc1)C(=O)O (stereo not given) has an inhibition greater than 25%. NC(C(=O)O)c1ccccc1Cl (stereo not given) was tested, and the inhibition was greater than 25%. Work on NC(C(=O)O)c1cccc([N+](=O)[O-])c1 (stereo not given) yielded an inhibition greater than 25%. In the case of NC(C(=O)O)C(O)c1cccs1 (racemic), the inhibition is reported as greater than 25%. For O=C(O)C1C[C@@H](Cc2ccccc2I)CN1 (single isomer, unassigned), the inhibition was greater than 25%. In the case of N[C@@H](Cn1oc(=O)[nH]c1=O)C(=O)O, the inhibition is reported as greater than 25%. Work on NC(C(=O)O)c1ccc([N+](=O)[O-])cc1 (stereo not given) yielded an inhibition greater than 25%. Molecule O=C(O)C1NCc2ccccc21 (stereo not given) has an inhibition greater than 25%. O=C(O)C1C[C@@H](Cc2ccsc2)CN1 (single isomer, unassigned) gave an inhibition greater than 25%. O=C(O)[C@H]1C[C@@H](F)CN1 showed an inhibition greater than 25%. O=C(Nc1cccc2ccccc12)[C@@H]1C[C@@H](O)CN1 showed an inhibition greater than 25%. With NC(Cc1c[nH]c2cccc(F)c12)C(=O)O (stereo not given) the inhibition was greater than 25%. With O=C(O)C1C[C@@H](Cc2cccc(Br)c2)CN1 (single isomer, unassigned) the inhibition was greater than 25%. Work on N[C@@H](CC(=O)OCc1ccccc1)C(=O)O yielded an inhibition greater than 25%. C=CC[C@H]1CNC(C(=O)O)C1 (single isomer, unassigned) gave an inhibition greater than 25%. With O=C(O)[C@@H]1C[C@@H](Oc2cccc(Cl)c2)CN1 the inhibition was greater than 25%. NC(C(=O)O)c1ccc2c(c1)OCCO2 (stereo not given) was tested, and the inhibition was greater than 25%. For Cc1ccccc1[C@H](N)C(=O)O, the inhibition was greater than 25%. For N#Cc1ccc(C[C@H]2CNC(C(=O)O)C2)cc1 (single isomer, unassigned), the inhibition was greater than 25%. Molecule COC(=O)[C@@H](N)c1ccccc1 has an inhibition greater than 25%. With C[C@@H](N)C(=O)O the inhibition was greater than 25%. For O=C(O)C1C[C@@H](Cc2ccccc2F)CN1 (single isomer, unassigned), the inhibition was greater than 25%. With NC(C(=O)O)c1ccc(F)c(Cl)c1 (stereo not given) the inhibition was greater than 25%. N[C@H](C(=O)O)c1cccc2ccccc12 gave an inhibition greater than 25%. For N[C@@H](CCC(=O)NO)C(=O)O, the inhibition was greater than 25%. With O=C(O)[C@@H]1C[C@@H](c2ccccc2)CN1 the inhibition was greater than 25%. NC(C(=O)O)C1C2CC3CC(C2)CC1C3 (stereo not given) showed an inhibition greater than 25%. Work on C[C@H](N)C(=O)O yielded an inhibition greater than 25%. N[C@@H](Cc1c[nH]c2ccc(O)cc12)C(=O)O was tested, and the inhibition was greater than 25%. For O=C(O)[C@@H]1C[C@H](Oc2cccc(Cl)c2)CN1, the inhibition was greater than 25%. CC(=O)OC[C@H](N)C(=O)O was tested, and the inhibition was greater than 25%. In the case of N[C@H](C(=O)O)C1CCCCC1, the inhibition is reported as greater than 25%. With C#CC[C@H]1CN[C@H](C(=O)O)C1 the inhibition was greater than 25%. In the case of C=CCC(N)C(=O)O (stereo not given), the inhibition is reported as greater than 25%. Work on O=C(O)C(c1ccc(F)cc1)N1CCOCC1 (stereo not given) yielded an inhibition greater than 25%. For N[C@H]1CCSC1=O, the inhibition was greater than 25%. NC(=O)C[C@@H](N)C(=O)O gave an inhibition greater than 25%. O=C(O)[C@H](CO)NCc1ccccc1 gave an inhibition greater than 25%. Work on O=C(O)C1C[C@@H](Cc2ccc(Cl)cc2)CN1 (single isomer, unassigned) yielded an inhibition greater than 25%. In the case of NC(C(=O)O)c1cccc(Br)c1 (stereo not given), the inhibition is reported as greater than 25%. In the case of NC(C(=O)O)c1cccc(F)c1 (stereo not given), the inhibition is reported as greater than 25%. In the case of N#Cc1ccccc1C[C@H]1CNC(C(=O)O)C1 (single isomer, unassigned), the inhibition is reported as greater than 25%. C[C@@H](O)[C@@H](N)C(=O)O (racemic) gave an inhibition greater than 25%. Molecule NC(C(=O)O)c1cc(O)cc(O)c1 (stereo not given) has an inhibition greater than 25%. With O=C(O)[C@@H]1C[C@@H](Cc2ccccc2C(F)(F)F)CN1 the inhibition was greater than 25%. O=C(O)C1C[C@@H](Cc2ccc([N+](=O)[O-])cc2)CN1 (single isomer, unassigned) was tested, and the inhibition was greater than 25%. Work on N[C@H](C(=O)O)c1ccc(C(F)(F)F)cc1 yielded an inhibition greater than 25%. Molecule NCC(=O)O has an inhibition greater than 25%. NC(C(=O)O)c1ccccc1O (stereo not given) gave an inhibition greater than 25%. Work on NC(C(=O)O)C12CC3CC(CC(C3)C1)C2 (stereo not given) yielded an inhibition greater than 25%. With CCOC(=O)CC(N)C(=O)O (stereo not given) the inhibition was greater than 25%. Molecule NC(C(=O)O)c1ccc(CO)c(O)c1 (stereo not given) has an inhibition greater than 25%. Molecule N#Cc1cccc(C[C@H]2CNC(C(=O)O)C2)c1 (single isomer, unassigned) has an inhibition greater than 25%. COCC(N)C(=O)O (racemic) showed an inhibition greater than 25%. O=C(O)C1C[C@@H](Cc2ccccc2Cl)CN1 (single isomer, unassigned) was tested, and the inhibition was greater than 25%. With O=C(O)[C@@H]1C[C@@H](Cc2cccc(Cl)c2)CN1 the inhibition was greater than 25%. With N[C@@H](Cc1cccs1)C(=O)O the inhibition was greater than 25%. COC[C@H](N)C(=O)O gave an inhibition greater than 25%. O=C(O)[C@@H]1C[C@@H](C2CCCCC2)CN1 was tested, and the inhibition was greater than 25%. Work on Cc1ccc(C(N)C(=O)O)cc1Cl (stereo not given) yielded an inhibition greater than 25%. For N[C@@H](CC1CC1)C(=O)O, the inhibition was greater than 25%. For COc1ccc(C(N)C(=O)O)cc1 (stereo not given), the inhibition was greater than 25%. O=C(O)C1C[C@@H](Cc2ccncc2)CN1 (single isomer, unassigned) showed an inhibition greater than 25%. Work on CCSC[C@H](N)C(=O)O yielded an inhibition greater than 25%. For CC(O)[C@H](C)[C@H](N)C(=O)O (stereo not given in full), the inhibition was greater than 25%. C[C@H](O)[C@H](N)C(=O)O showed an inhibition greater than 25%. With C[C@H](O)[C@@H](N)C(=O)O the inhibition was greater than 25%. Work on N[C@@H](CCCc1ccccc1)C(=O)O yielded an inhibition greater than 25%. With O=C(O)C1C[C@@H](Cc2ccc(Cl)c(Cl)c2)CN1 (single isomer, unassigned) the inhibition was greater than 25%. Molecule N[C@@H](Cc1ccc(O)cc1)C(=O)O has an inhibition greater than 25%. Nc1ccccc1C(=O)C[C@H](N)C(=O)O showed an inhibition greater than 25%. Molecule O=C(O)[C@H]1NCCC1c1ccccc1 (stereo not given in full) has an inhibition greater than 25%. Work on Nc1c(O)cccc1C(=O)CC(N)C(=O)O (stereo not given) yielded an inhibition greater than 25%. Work on [N-]=[N+]=CC(=O)CC[C@H](N)C(=O)O yielded an inhibition greater than 25%. With N[C@@H](Cc1ccc(O)c(O)c1)C(=O)O the inhibition was greater than 25%. O=C(O)/C(=C/c1c(C(=O)O)[nH]c2cc(Cl)cc(Cl)c12)c1ccccc1 showed an inhibition greater than 25%. Work on O=C(O)C1C[C@@H](Cc2ccc(Cl)cc2Cl)CN1 (single isomer, unassigned) yielded an inhibition greater than 25%. N[C@H](C(=O)O)c1ccco1 showed an inhibition greater than 25%. In the case of NC(Cc1c[nH]c2cc(F)ccc12)C(=O)O (stereo not given), the inhibition is reported as greater than 25%. In the case of Cc1ccc(C[C@H]2CNC(C(=O)O)C2)cc1 (single isomer, unassigned), the inhibition is reported as greater than 25%. [N-]=[N+]=NCC[C@H](N)C(=O)O gave an inhibition greater than 25%. In the case of N[C@@H](CCC(=O)Nc1cccc2ccccc12)C(=O)O, the inhibition is reported as greater than 25%. N[C@H](C(=O)O)c1ccc(O)c(C(=O)O)c1 was tested, and the inhibition was greater than 25%. CNC[C@H](N)C(=O)O was tested, and the inhibition was greater than 25%. O=C(O)[C@@H]1C[C@@H](Cc2ccccn2)CN1 gave an inhibition greater than 25%. NC(CC(=O)c1ccccc1)C(=O)O (stereo not given) gave an inhibition greater than 25%. O=C(O)[C@@H]1NCC[C@H]1Cc1ccc(F)cc1 gave an inhibition greater than 25%. N[C@@H](C(=O)O)C1=CCC=CC1 gave an inhibition greater than 25%. In the case of O=C(O)C1C[C@@H](Cc2csc3ccccc23)CN1 (single isomer, unassigned), the inhibition is reported as greater than 25%. With CC(C)[C@H](N)C(=O)O the inhibition was greater than 25%. In the case of NC(C(=O)O)c1cccc(C(F)(F)F)c1 (stereo not given), the inhibition is reported as greater than 25%. For CSC[C@H](N)C(=O)O, the inhibition was greater than 25%. O=C(O)[C@@H]1C[C@@H](Cc2ccco2)CN1 gave an inhibition greater than 25%. Molecule O=C(O)c1cc2sccc2[nH]1 has an inhibition greater than 25%. With CC(C)(C)c1ccc(C[C@H]2CNC(C(=O)O)C2)cc1 (single isomer, unassigned) the inhibition was greater than 25%. With O=C(O)C1C[C@@H](Cc2cccc(F)c2)CN1 (single isomer, unassigned) the inhibition was greater than 25%. For O=C(O)[C@@H]1NCC[C@H]1Cc1ccccc1, the inhibition was greater than 25%. NC1(C(=O)O)CCC1 showed an inhibition greater than 25%. Molecule C[C@H]1CCN[C@@H]1C(=O)O has an inhibition greater than 25%. O=C(O)C1C[C@@H](Cc2ccc(F)c(F)c2)CN1 (single isomer, unassigned) showed an inhibition greater than 25%. NC1(C(=O)O)CCCC1 gave an inhibition greater than 25%. With N[C@H](CCO)C(=O)O the inhibition was greater than 25%. O=C(O)[C@@H]1CN1 gave an inhibition greater than 25%. With NC(C(=O)O)c1ccc(O)c(O)c1 (stereo not given) the inhibition was greater than 25%. For N[C@@H](Cc1csc2ccccc12)C(=O)O, the inhibition was greater than 25%. Work on CC(C)(S)[C@H](N)C(=O)O yielded an inhibition greater than 25%. In the case of N[C@@H](CO)C(=O)Nc1ccc2ccccc2c1, the inhibition is reported as greater than 25%. In the case of O=C(O)C1C[C@@H](Cc2ccc(Br)cc2)CN1 (single isomer, unassigned), the inhibition is reported as greater than 25%. N[C@@H](Cc1ccc2ccccc2c1)C(=O)O gave an inhibition greater than 25%. O=C(O)[C@H]1NCC[C@@H]1c1ccccc1 gave an inhibition greater than 25%. O=C(O)[C@@H]1Cc2ccccc2CN1 gave an inhibition greater than 25%. Cc1ccccc1C[C@H]1CNC(C(=O)O)C1 (single isomer, unassigned) gave an inhibition greater than 25%. In the case of O=C(O)C1C[C@@H](Cc2cccc3ccccc23)CN1 (single isomer, unassigned), the inhibition is reported as greater than 25%. N[C@@H](CCc1ccccc1)C(=O)O was tested, and the inhibition was greater than 25%. Molecule NC(CCC(=O)Nc1ccccc1)C(=O)O (stereo not given) has an inhibition greater than 25%. Work on O=C(O)[C@@H]1C[C@H](Cc2ccccc2)CN1 yielded an inhibition greater than 25%. In the case of CCOC(=O)CC[C@H](N)C(=O)O, the inhibition is reported as greater than 25%. Cc1ccc(SC[C@H](N)C(=O)O)cc1 gave an inhibition greater than 25%. N[C@@H](CCO)C(=O)O was tested, and the inhibition was greater than 25%. NC(C(=O)O)C(O)c1cccnc1 (racemic) gave an inhibition greater than 25%. NC(C(=O)O)c1nnn[nH]1 (stereo not given) was tested, and the inhibition was greater than 25%. Work on CSCC[C@H](N)C(=O)O yielded an inhibition greater than 25%. With O=C(O)C1C[C@@H](Cc2ccccc2Br)CN1 (single isomer, unassigned) the inhibition was greater than 25%.
